How the values were obtained:
[1] = system: Nonconditioned Passive Avoidance in Rats; assay: Nonconditioned passive avoidance (conflict) test in rats; type: in vivo, rat (Wistar); design: key: Active: considered active if the number of shocks received by the test group is significantly higher than the control group by the Mann-Witney U test; conditions: oral or i.p.
Method: Another test which has been used to assess anti-anxiety effects is a nonconditioned passive avoidance procedure described by [J. R. Vogel, B. Beer and D. E. Clody, "A Simple and Reliable Conflict Procedure for Testing Anti-Anxiety Agents", Psychopharmacologia, 21, 1-7 (1971)]. A conflict situation is induced in rats by a modification of this method.
Groups of 6 naive, Wistar strain rats, weighing 200-240 g each were deprived of water for 48 hours and food for 24 hours. The test compounds were administered in single or graded, oral or intraperitoneal doses, suspended in a 2% starch vehicle containing 0.5% v/v polyethylene glycol and one drop of polysorbate 80. Control animals received the vehicle alone. At 30 to 60 minutes each rat was placed in an individual plexiglass chamber. Water was available ad libitum from a tap located in the rear of the chamber. A 0.7 milliampere DC shocking current was established between the stainless steel grid floor and the tap. After 20 licks of non-shocked drinking, a shock was delivered for 2 seconds and then further shocks were delivered on a ratio of one shock for 2 seconds for every 20 licks. This was continued for a total of 3 minutes. The number of shocks taken by each rat during the 3 minute interval was recorded and compared to a control group. […]

[2] = system: Clonic Seizures Caused by Pentylenetetrazole in Rats; assay: Protection against clonic seizures caused by pentylenetetrazole in rats; type: in vivo; conditions: Rattus norvegicus, oral or i.p., read-out: % of Rats Protected; for responders at 25 mg/kg: pentylenetetrazole 23 mg/kg i.v. at 30 or 60 min
Method: The anti-anxiety and anticonvulsant properties of the novel compounds of the present invention have been established in a test which indicates anxiolytic and antiepileptic activity by the measure of protection from convulsions resulting from the administration of pentylenetetrazole. Single or graded dose levels of the test compounds were administered orally or intraperitoneally in a 2% starch vehicle, containing 0.5% v/v polyethylene glycol and one drop of Polysorbate 80 to groups of at least 4 rats. At 30 or 60 minutes, the rats were treated intravenously with pentylenetetrazole at a dose of 23 mg/kg of body weight. This dose is estimated to cause clonic seizures in 99% of unprotected rats. It has been reported [R. T. Hill and D. H. Tedeschi, "Animal Testing and Screening Procedures in Evaluating Psychotropic Drugs" in "An Introduction to Psychopharmacology", Eds. R. R. Rech and K. E. Moore, Raven Press, New York, pp 237-288 (1971)] that there is a high degree of correlation between antagonism of pentylenetetrazole seizures in rats and anti-anxietyor anticonvulsant effects in higher warm-blooded animals.

[3] = system: Brain-Specific Receptors of Rats; assay: Inhibition of the binding of 3H-benzodiazepine to brain-specific receptors of rats; design: species or system rat (Wistar); conditions: 3H-diazepam 1.5 nM or 3H-flunitrazepam 1.0 nM; rat cortex P2 fraction; test concentration not given

SMILES	Result (nonconditioned passive avoidance) ([1]; dose 25.0 mg/kg)	responders at 25 mg/kg [2] [%]	% Inhibition [3] [%]	further results
CC(=O)N(C)c1ccc(-c2ccnc3c(C(=O)c4ccccc4)cnn23)cc1 [N--[4-(3-benzoylpyrazolo[1,5-a]pyrimidin-7-yl)phenyl]-N--methylacetamide]	Active			
CCc1ccc(C(=O)c2cnn3c(-c4cccnc4)ccnc23)cc1 [(4-ethylphenyl)[7-(3-pyridinyl)pyrazolo[1,5-a]pyrimidin-3-yl]methanone]	Active	100		
O=C(c1ccccc1F)c1cnn2c(-c3cccc(C(F)(F)F)c3)ccnc12 [(2-fluorophenyl)[7-[3-(trifluoromethyl)phenyl]pyrazolo[1,5-a]pyrimidin-3-yl]methanone]	Active	50		
CCC(=O)N(CC)c1cccc(-c2ccnc3c(C(=O)c4ccco4)cnn23)c1 [N-Ethyl-N-[3-[3-(2-furanylcarbonyl)pyrazolo[1,5-a]pyrimidin-7-yl]phenyl]propanamide]				Result (nonconditioned passive avoidance) ([1]; dose 12.5 mg/kg): Active
CCC(=O)N(C)c1cccc(-c2ccnc3c(C(=O)c4ccco4)cnn23)c1 [N-[3-[3-(2-Furanylcarbonyl)pyrazolo[1,5-a]pyrimidin-7-yl]phenyl]-N-methylpropanamide]	Active			responders at 6 mg/kg ([2]; dose 6.0 mg/kg, pentylenetetrazole 23 mg/kg i.v.): 100%
COc1cccc(C(=O)c2cnn3c(-c4cccnc4)ccnc23)c1 [(3-methoxyphenyl)[7-(3-pyridinyl)pyrazolo[1,5-a]pyrimidin-3-yl]methanone]	Active	75		
CC(=O)N(C)c1cccc(-c2ccnc3c(C(=O)c4ccccc4)cnn23)c1 [N-[3-(3-Benzoylpyrazolo[1,5-a]pyrimidin-7-yl)phenyl]-N-methylacetamide]				Result (nonconditioned passive avoidance) ([1]; dose 3.1 mg/kg): Active; responders at 0.8 mg/kg ([2]; dose 0.8 mg/kg, pentylenetetrazole 23 mg/kg i.v.): 75%
O=C(c1ccccc1F)c1cnn2c(-c3cccnc3)ccnc12 [(2-fluorophenyl)[7-(3-pyridinyl)pyrazolo[1,5-a]pyrimidin-3-yl]methanone]	Active	100		
O=C(c1cccc(F)c1)c1cnn2c(-c3ccncc3)ccnc12 [(3-fluorophenyl)[7-(4-pyridinyl)pyrazolo[1,5-a]pyrimidin-3-yl]methanone]	Active	100		
Cc1cc(-c2ccc(Cl)c(Cl)c2)n2ncc(C(=O)c3ccccc3)c2n1 [[7-(3,4-dichlorophenyl)-5-methylpyrazolo[1,5-a]pyrimidin-3-yl]phenyl-methanone]		25	97	
Cc1cccc(C(=O)c2cnn3c(-c4cccc(C)c4)ccnc23)c1 [(3-methylphenyl)[7-(3-methylphenyl)pyrazolo[1,5-a]pyrimidin-3-yl]methanone]		25	75	
Cc1cccc(C(=O)c2cnn3c(-c4cccc(C(F)(F)F)c4)ccnc23)c1 [(3-methylphenyl)[7-[3-(trifluoromethyl)phenyl]pyrazolo[1,5-a]pyrimidin-3-yl]methanone]		25	67	
O=C(c1ccc(F)cc1)c1cnn2c(-c3ccccn3)ccnc12 [(4-fluorophenyl)[7-(2-pyridinyl)pyrazolo[1,5-a]pyrimidin-3-yl]methanone]		50	17	
Cc1ccc(C(=O)c2cnn3c(-c4ccncc4)ccnc23)cc1 [(4-methylphenyl)[7-(4-pyridinyl)pyrazolo[1,5-a]pyrimidin-3-yl]methanone]		50	19	
O=C(c1ccccc1)c1cnn2c(-c3cc(Cl)cc(Cl)c3)ccnc12 [[7-(3,5-dichlorophenyl)pyrazolo[1,5-a]pyrimidin-3-yl]phenyl-methanone]		25	20	

— patent publication US4521422A, “Aryl and heteroaryl[7-(aryl and heteroaryl)pyrazolo[1,5-a]pyrimidin-3-yl]methanones” (American Cyanamid Company, priority 1984, dated 1985)
